In BindingDB's records for doi:10.1021/jm070643q (Universit&#224, 2007) one finds Ki data, which are given here for three compounds.

The test deals with beta-lactamase AmpC (Escherichia coli) (UniProt P00811). Put plainly: Inhibition of Escherichia coli beta-lactamase.
beta-lactamase AmpC (Escherichia coli), sequence (P00811 whole entry, looked up): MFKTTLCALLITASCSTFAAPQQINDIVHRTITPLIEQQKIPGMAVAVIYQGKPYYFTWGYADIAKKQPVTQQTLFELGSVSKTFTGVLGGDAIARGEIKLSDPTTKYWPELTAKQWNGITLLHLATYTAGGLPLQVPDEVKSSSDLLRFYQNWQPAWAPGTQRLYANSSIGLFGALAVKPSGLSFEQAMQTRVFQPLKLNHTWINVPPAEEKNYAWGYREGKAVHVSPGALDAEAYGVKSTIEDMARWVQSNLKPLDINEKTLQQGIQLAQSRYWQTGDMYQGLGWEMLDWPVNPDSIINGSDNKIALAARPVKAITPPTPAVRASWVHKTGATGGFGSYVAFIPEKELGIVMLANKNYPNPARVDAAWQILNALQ
A word on the Ki: it is the equilibrium dissociation constant of an inhibitor or competing ligand from its target. Lower therefore signals higher affinity. Turning to `O=CNCc1ccc2sc(B(O)O)cc2c1` [5-formylaminomethylbenzo[b]thiophen-2-ylboronic acid], the affinity, expressed as Ki, was 450 nM. In other words, the sub-micromolar range. In turn, `OB(O)c1cc2cc(Cn3ccnc3)ccc2s1` [5-imidazol-1-yl-methylbenzo[b]thiophen-2-ylboronic acid] showed a Ki of 82 nM. `Cc1ccc2sc(B(O)O)cc2c1` [5-methyl-benzo[b]thiophen-2-ylboronic acid] returned a Ki of 30 nM.
